Data: US20120034613A1, “Apparatus and Method for Testing Relationships Between Gene Expression and Physical Appearance of Skin” (NSE Products, Inc., priority 2010, published 2012)

Tested on: EpidermFT™ Skin Model (EFT-400) full thickness skin cultures
Test: Affymetrix GeneChip HG U133 Plus 2.0 microarray global gene expression, agent-exposed vs untreated skin cultures
Type: cell-based, human
[1] = probe 239272_at, Table 3 skin structure
[2] = probe 1552319_a_at, 0.5%, 24 hr
[3] = probe 1552578_a_at, 0.5%, 24 hr
[4] = probe 1554252_a_at, 0.5%, 24 hr
[5] = probe 1554741_s_at, 0.5%, 24 hr
[6] = probe 1554921_a_at, 0.5%, 24 hr
[7] = probe 1554980_a_at, 0.5%, 24 hr
[8] = probe 1554997_a_at, 0.5%, 24 hr
[9] = probe 1555103_s_at, 0.5%, 24 hr
[10] = probe 1555416_a_at, 0.5%, 24 hr
[11] = probe 1556410_a_at, 0.5%, 24 hr
[12] = probe 1558143_a_at, 0.5%, 24 hr
[13] = tissue exposed to salicin, skin structure gene, Table 4
[14] = tissue exposed to salicin, skin structure gene, Table 4, direction down
[15] = tissue exposed to salicin, skin structure gene, Table 4, direction up

## OCc1ccccc1O[C@@H]1O[C@H](CO)[C@@H](O)[C@H](O)[C@H]1O [Salicin, 2-(Hydroxymethyl)phenyl β-D-glucospyranoside]
Probe 223217_s_at, 0.5%, 24 hr
  Direction NFKBIZ: up
  Fold change NFKBIZ: 2.35
Probe 223222_at, 0.5%, 24 hr
  Direction SLC25A19: up
  Fold change SLC25A19: 2.243
Probe 223541_at, 0.5%, 24 hr
  Direction HAS3: down
  Fold change HAS3: 3.713
Probe 224220_x_at, 0.5%, 24 hr
  Direction TRPC4: up
  Fold change TRPC4: 2.708
Probe 224329_s_at, 0.5%, 24 hr
  Direction CNFN: down
  Fold change CNFN: 5.442
Probe 225245_x_at, 0.5%, 24 hr
  Direction H2AFJ: down
  Fold change H2AFJ: 2.328
Probe 225337_at, 0.5%, 24 hr
  Direction ABHD2: up
  Fold change ABHD2: 2.704
Probe 225566_at, 0.5%, 24 hr
  Direction NRP2: up
  Fold change NRP2: 3.198
Probe 227271_at, 0.5%, 24 hr
  Direction FGF11: down
  Fold change FGF11: 2.672
Probe 227361_at, 0.5%, 24 hr
  Direction HS3ST3B1: up
  Fold change HS3ST3B1: 3.41
Probe 227487_s_at, 0.5%, 24 hr
  Direction SERPINE2: up
  Fold change SERPINE2: 3.148
Probe 228082_at, 0.5%, 24 hr
  Direction ASAM: up
  Fold change ASAM: 2.108
Probe 228575_at, 0.5%, 24 hr
  Direction IL20RB: down
  Fold change IL20RB: 10.04
Probe 229199_at, 0.5%, 24 hr
  Direction SCN9A: up
  Fold change SCN9A: 3.818
Probe 229228_at, 0.5%, 24 hr
  Direction CREB5: up
  Fold change CREB5: 9.768
Probe 230398_at, 0.5%, 24 hr
  Direction TNS4: down
  Fold change TNS4: 2.738
Probe 230494_at, 0.5%, 24 hr
  Direction SLC20A1: up
  Fold change SLC20A1: 2.526
Probe 231015_at, 0.5%, 24 hr
  Direction KLF15: up
  Fold change KLF15: 2.338
Probe 231031_at, 0.5%, 24 hr
  Direction KGFLP2: up
  Fold change KGFLP2: 3.34
Probe 232165_at, 0.5%, 24 hr
  Direction EPPK1: down
  Fold change EPPK1: 12.4
Probe 234513_at, 0.5%, 24 hr
  Direction ELOVL3: down
  Fold change ELOVL3: 2.048
Probe 235148_at, 0.5%, 24 hr
  Direction KRTCAP3: down
  Fold change KRTCAP3: 2.158
Probe 235405_at, 0.5%, 24 hr
  Direction GSTA4: down
  Fold change GSTA4: 3.3
Probe 238567_at, 0.5%, 24 hr
  Direction SGPP2: down
  Fold change SGPP2: 5.641
[1]
  Direction MMP28: down
  Fold change MMP28: 4.074
Probe 239273_s_at, 0.5%, 24 hr
  Direction MMP28: down
  Fold change MMP28: 2.678
Probe 244852_at, 0.5%, 24 hr
  Direction DSEL: up
  Fold change DSEL: 2.251
[2]
  Direction KLK8: down
  Fold change KLK8: 4.867
[3]
  Direction MYO3B: up
  Fold change MYO3B: 2.338
Probe 1553960_at, 0.5%, 24 hr
  Direction SNX21: down
  Fold change SNX21: 2.031
[4]
  Direction LASS3: down
  Fold change LASS3: 15.34
[5]
  Direction FGF7 /// KGFLP1 /// KGFLP2: up
  Fold change FGF7 /// KGFLP1 /// KGFLP2: 2.506
[6]
  Direction SCEL: down
  Fold change SCEL: 6.1
[7]
  Direction ATF3: up
  Fold change ATF3: 2.623
[8]
  Direction PTGS2: up
  Fold change PTGS2: 6.813
[9]
  Direction FGF7: up
  Fold change FGF7: 2.35
[10]
  Direction ALOX15B: down
  Fold change ALOX15B: 2.215
[11]
  Direction KRTAP19-1: up
  Fold change KRTAP19-1: 24.65
[12]
  Direction BCL2L11: up
  Fold change BCL2L11: 2.347
Probe 1559224_at, 0.5%, 24 hr
  Direction LCE1E: down
  Fold change LCE1E: 4.811
Probe 1560531_at, 0.5%, 24 hr
  Direction LCE1B: down
  Fold change LCE1B: 71.235
Probe 1561042_at, 0.5%, 24 hr
  Direction ITGB1: up
  Fold change ITGB1: 2.151
Probe 1569410_at, 0.5%, 24 hr
  Direction FLG2: down
  Fold change FLG2: 45.91
[13]
  Direction COL4A1 (211981_at): up
  Direction FBN2 (203184_at): up
  Direction FN1 (214702_at): up
  Direction FNDC3A (215910_s_at): up
  Direction FOXO1 (202724_s_at): up
  Direction IGFBP5 (211958_at): up
  Direction ITGB1 (1561042_at): up
  Direction KRT5 (201820_at): down
  Direction KRT9 (208188_at): down
  Direction MMP28 (239272_at): down
  Direction SOD2 (215078_at): up
  Direction TIMP3 (201150_s_at): up
  Direction TNC (216005_at): up
  Direction TNFAIP3 (202643_s_at): up
[14]
  Fold change KRT5 (201820_at): 3.737
  Fold change KRT9 (208188_at): 3.737
  Fold change MMP28 (239272_at): 4.074
[15]
  Fold change COL4A1 (211981_at): 2.121
  Fold change FBN2 (203184_at): 2.028
  Fold change FN1 (214702_at): 2.71
  Fold change FNDC3A (215910_s_at): 3.663
  Fold change FOXO1 (202724_s_at): 2.098
  Fold change IGFBP5 (211958_at): 2.712
  Fold change ITGB1 (1561042_at): 2.151
  Fold change SOD2 (215078_at): 5.712
  Fold change TIMP3 (201150_s_at): 2.058
  Fold change TNC (216005_at): 2.719
  Fold change TNFAIP3 (202643_s_at): 6.915
